Assay results published in article PMC4319847 (PLoS ONE, 2015).
No end group written: not given here.

Molecular target: T1, ΔIBB-h-importin-α1 (Homo sapiens, UniProt P52292, DEL11-54)
T1 construct: IBB domain-truncated h-importin-α1 (Δ-h-importin-α1) (1–10, 55–529); GST (N, cleaved yes); His6 (C); made in house; host or cells: E. coli BL21 (DE3) Codonplus-RIL
Assay: ITC binding of NLS peptides to ΔIBB-h-importin-α1

Sequence: KRPAATKKAGQAKKKK [nucleoplasmin NLS]
- Kd: 0.14 ± 0.05 µM
